In patent publication US12233161B1, “Lipids and lipid nanoparticle formulations” (LONGUIDE BIOPHARMA CORPORATION, priority 2024, dated 2025):

System: mice
Assay: In vivo delivery of FLuc-mRNA lipid nanoparticles in mice, in vivo imaging (IVIS)
Settings: for IVIS / % of organ targeting: Fluc-mRNA LNP; for organ targeting specificity (spleen or lung), in words: Table 3, Fluc-mRNA, various formulations
Description: After the preparation was completed, the preparation was injected intramuscularly (mice rectus femoris muscle of the thigh), intravenously (mice tail vein), or intraperitoneal injection or subcutaneous injection (subcutaneous on the back), with approximately 75 μL per mouse, for a total of 3 mice. After a certain time of injection, in vivo imaging (PerkinElmer, IVIS Lumina III) was performed. 10-15 minutes before imaging, 200 μL of 15 mg/mL D-Luciferin working solution was injected intraperitoneally, and the imaging analysis was performed using an in vivo imager.

[1] = route IH, organ: liver, DSPE-PEG5000:DSPC:Chol:compound 1.40:11.15:38.95:48.50, N/P 30
[2] = route IH, organ: lung, DSPE-PEG5000:DSPC:Chol:compound 1.40:11.15:38.95:48.50, N/P 30
[3] = route IH, organ: spleen, DSPE-PEG5000:DSPC:Chol:compound 1.40:11.15:38.95:48.50, N/P 30
[4] = route IM, organ: liver, formulation, molar ratio and N/P as in the table
[5] = route IM, organ: lung, formulation, molar ratio and N/P as in the table
[6] = route IM, organ: muscle, formulation, molar ratio and N/P as in the table
[7] = route IM, organ: spleen, formulation, molar ratio and N/P as in the table
[8] = route IM, organ not given, formulation, molar ratio and N/P as in the table
[9] = route IV, organ: body, formulation, molar ratio and N/P as in the table
[10] = route IV, organ: liver, formulation, molar ratio and N/P as in the table
[11] = route IV, organ: lung, formulation, molar ratio and N/P as in the table
[12] = route IV, organ: spleen, formulation, molar ratio and N/P as in the table
[13] = route IV, organ not given, formulation, molar ratio and N/P as in the table

Compound | % of organ targeting [4] [%] | IVIS [4] | % of organ targeting [5] [%] | IVIS [5] | IVIS [6] | % of organ targeting [7] [%] | IVIS [7] | IVIS [8] | IVIS [9] | % of organ targeting [10] [%] | IVIS [10] | % of organ targeting [11] [%] | IVIS [11] | % of organ targeting [12] [%] | IVIS [12] | organ targeting specificity (spleen or lung), in words | IVIS [13] | further results
CCCCCCC(CCCCCC)C(=O)NCCOC(=O)C(O)CN(CCN(C)CCN(CC(O)C(=O)OCCNC(=O)C(CCCCCC)CCCCCC)CC(O)C(=O)OCCNC(=O)C(CCCCCC)CCCCCC)CC(O)C(=O)OCCNC(=O)C(CCCCCC)CCCCCC (stereo not shown) [Compound L0362] | 44.30 | 2.62E+07 | 0.77 | 4.55E+05 | 3.43E+08 | 35.43 | 2.09E+07 |  |  |  |  |  |  |  |  |  |  | IVIS (route IH, organ: body, DSPE-PEG5000:DSPC:Chol:compound 1.40:11.15:38.95:48.50, N/P 30): 1.38E+08; % of organ targeting [1]: 62.89%; IVIS [1]: 1.80E+07; % of organ targeting [2]: 1.15%; IVIS [2]: 3.28E+05; % of organ targeting [3]: 33.19%; IVIS [3]: 9.50E+06
CCCCCCCCCCOC(=O)CCCNC(=O)C(O)CN(CCCN(C)CCCN(CC(O)C(=O)NCCCC(=O)OCCCCCCCCCC)CC(O)C(=O)NCCCC(=O)OCCCCCCCCCC)CC(O)C(=O)NCCCC(=O)OCCCCCCCCCC (stereo not shown) [Compound L0385] |  |  |  |  |  |  |  | 1.14E+06 | 8.17E+07 | 0.90 | 2.51E+06 | 98.40 | 2.74E+08 | 0.70 | 1.94E+06 | more selective towards the lung |  | 
CCCCCCC(CCCCCC)C(=O)OCCCCCCNC(=O)C(O)CN(CCCN(CC(O)C(=O)NCCCCCCOC(=O)C(CCCCCC)CCCCCC)CC(O)C(=O)NCCCCCCOC(=O)C(CCCCCC)CCCCCC)CCCN(CC(O)C(=O)NCCCCCCOC(=O)C(CCCCCC)CCCCCC)CC(O)C(=O)NCCCCCCOC(=O)C(CCCCCC)CCCCCC (stereo not shown) [Compound L0360] |  |  |  |  |  |  |  | 1.44E+07 |  |  |  |  |  |  |  |  | 4.50E+08 | 
CCCCCCCCCCCCCCN(C)C(=O)C(O)CN(CCCN(CC(O)C(=O)N(C)CCCCCCCCCCCCCC)CC(O)C(=O)N(C)CCCCCCCCCCCCCC)CCCN(CC(O)C(=O)N(C)CCCCCCCCCCCCCC)CC(O)C(=O)N(C)CCCCCCCCCCCCCC (stereo not shown) [Compound L0357] |  |  |  |  |  |  |  | 3.97E+06 | 2.87E+07 | 55.56 | 6.55E+06 | 1.75 | 2.06E+05 | 42.69 | 5.03E+06 |  |  | 
CCCCCCC(CCCCCC)C(=O)OCCCCCCNC(=O)C(O)CN(CCN(C)CCN(CC(O)C(=O)NCCCCCCOC(=O)C(CCCCCC)CCCCCC)CC(O)C(=O)NCCCCCCOC(=O)C(CCCCCC)CCCCCC)CC(O)C(=O)NCCCCCCOC(=O)C(CCCCCC)CCCCCC (stereo not shown) [Compound L0359] |  |  |  |  |  |  |  | 2.25E+07 | 2.65E+08 | 33.50 | 5.06E+07 | 6.37 | 9.61E+06 | 60.13 | 9.08E+07 |  |  | 
CCCCCCCCCCCCCCN(C)C(=O)C(O)CN(CCN(C)CCN(CC(O)C(=O)N(C)CCCCCCCCCCCCCC)CC(O)C(=O)N(C)CCCCCCCCCCCCCC)CC(O)C(=O)N(C)CCCCCCCCCCCCCC (stereo not shown) [Compound L0356] |  |  |  |  |  |  |  | 1.62E+05 | 2.19E+06 | 7.17 | 1.12E+05 | 75.97 | 1.18E+06 | 16.86 | 2.63E+05 |  |  | 
CCCCCCC(CCCCCC)C(=O)OCCCCNC(=O)C(O)CN(CCCN(CC(O)C(=O)NCCCCOC(=O)C(CCCCCC)CCCCCC)CC(O)C(=O)NCCCCOC(=O)C(CCCCCC)CCCCCC)CCCN(CC(O)C(=O)NCCCCOC(=O)C(CCCCCC)CCCCCC)CC(O)C(=O)NCCCCOC(=O)C(CCCCCC)CCCCCC (stereo not shown) [Compound L0369] |  |  |  |  |  |  |  | 6.07E+07 | 1.22E+10 | 98.57 | 4.47E+09 | 0.75 | 3.40E+07 | 0.68 | 3.07E+07 |  |  | 
CCCCCCC(CCCCCC)C(=O)NCCNC(=O)C(O)CN(CCCN(C)CCCN(CC(O)C(=O)NCCNC(=O)C(CCCCCC)CCCCCC)CC(O)C(=O)NCCNC(=O)C(CCCCCC)CCCCCC)CC(O)C(=O)NCCNC(=O)C(CCCCCC)CCCCCC (stereo not shown) [Compound L0379] | 35.55 | 1.37E+06 | 3.16 | 1.22E+05 | 2.68E+08 | 61.28 | 2.37E+06 |  |  |  |  |  |  |  |  | strong targeting specificity to deliver to spleen | 1.63E+09 | 
CCCCCCCCC(CCCCCC)C(=O)OCCCCCCNC(=O)C(O)CN(CCCN(CC(O)C(=O)NCCCCCCOC(=O)C(CCCCCC)CCCCCCCC)CC(O)C(=O)NCCCCCCOC(=O)C(CCCCCC)CCCCCCCC)CCCN(CC(O)C(=O)NCCCCCCOC(=O)C(CCCCCC)CCCCCCCC)CC(O)C(=O)NCCCCCCOC(=O)C(CCCCCC)CCCCCCCC (stereo not shown) [Compound L0372] |  |  |  |  |  |  |  | 7.60E+06 |  |  |  |  |  |  |  |  | 4.83E+08 | 
CCCCCCCC(CCCCCCC)OC(=O)CCCNC(=O)C(O)CN(CCN(C)CCN(CC(O)C(=O)NCCCC(=O)OC(CCCCCCC)CCCCCCC)CC(O)C(=O)NCCCC(=O)OC(CCCCCCC)CCCCCCC)CC(O)C(=O)NCCCC(=O)OC(CCCCCCC)CCCCCCC (stereo not shown) [Compound L0383] | 29.05 | 1.91E+05 | 10.07 | 6.63E+04 | 1.78E+08 | 60.88 | 4.01E+05 |  | 2.00E+09 | 68.14 | 4.62E+08 | 2.23 | 1.52E+07 | 29.63 | 2.01E+08 | strong targeting specificity to deliver to spleen |  | 
CCCCCCCCC(CCCCCC)C(=O)OCCCCNC(=O)C(O)CCN(CCCN(C)CCN(CC(O)C(=O)NCCCCOC(=O)C(CCCCCC)CCCCCCCC)CC(O)C(=O)NCCCCOC(=O)C(CCCCCC)CCCCCCCC)C(O)C(=O)NCCCCOC(=O)C(CCCCCC)CCCCCCCC (stereo not shown) [Compound L0377] | 35.08 | 1.59E+05 | 6.58 | 2.98E+04 | 3.71E+07 | 58.34 | 2.64E+05 |  | 1.81E+08 | 38.23 | 6.08E+07 | 4.20 | 6.67E+06 | 57.57 | 9.15E+07 | strong targeting specificity to deliver to spleen |  | 
CCCCCCCCC(CCCCCC)C(=O)NCCOC(=O)C(O)CN(CCCN(CC(O)C(=O)OCCNC(=O)C(CCCCCC)CCCCCCCC)CC(O)C(=O)OCCNC(=O)C(CCCCCC)CCCCCCCC)CCCN(CC(O)C(=O)OCCNC(=O)C(CCCCCC)CCCCCCCC)CC(O)C(=O)OCCNC(=O)C(CCCCCC)CCCCCCCC (stereo not shown) [Compound L0375] |  |  |  |  |  |  |  | 1.41E+05 |  |  |  |  |  |  |  |  | 3.72E+05 | 
